Our source for the bioavailability, clearance and half-life values is ChEMBL document CHEMBL1131392, “3-Pyridyloxypropanolamine agonists of the beta 3 adrenergic receptor with improved pharmacokinetic properties” (Bioorg Med Chem Lett, 1998).

Some results are limits rather than exact numbers.

Data set [1] in a line: Oral bioavailability in dog. Format: ADME, organism-based, Canis lupus familiaris. As to conditions: in vivo.
The nature of data set [2]: Plasma clearance upon intravenous administration of 1 mg/Kg in rats. Format: ADME, organism-based. As to conditions: rat.
Data set [3] is described as follows: Compound was evaluated for half life (t1/2) upon intravenous administration of 1 mg/Kg in rats. As to conditions: rat, in vivo. Format: ADME, organism-based.

As a reminder, the bioavailability is the share of a dose that reaches the circulation, judged against a reference dose that is usually intravenous. Broadly, the clearance is the volume of plasma or blood freed of the substance per unit of time. Broadly, the half-life is how long it takes for the measured level to halve.

`O=S(=O)(Nc1ccc(CCNC[C@H](O)COc2ccc(O)cc2)cc1)c1cnc2ccccc2c1`: the bioavailability in data set [1] worked out at 3%.
Consider `O=S(=O)(Nc1ccc(CCNC[C@H](O)COc2ccc(O)cc2)cc1)c1ccccc1`, for which the clearance in data set [2] was > 200 mL/min/kg. This molecule displayed a half-life in data set [3] of 25 min.
Consider `CCCCCCNC(=O)Nc1ccc(S(=O)(=O)Nc2ccc(CCNC[C@H](O)COc3ccc(O)cc3)cc2)cc1` [L-755507], for which the bioavailability in data set [1] is < 1%.
